Results on 89 molecules are retold here after a melting point compilation (Tetko et al.; mined from patent text by program, amines drawn as free bases though some values may be those of a salt).

A value given as a limit tells only on which side of the number the result lay.

Usually melting point stands for the temperature of the solid-liquid transition. On to `OC1CCc2c(Br)ccc(Nc3cc(-c4ccc(C(F)(F)F)cc4)ncn3)c2C1` (centres undefined), for which the melting point amounted to 192 °C.
As to `Clc1ccc(Nc2nc3ccccc3c3[nH]c(C4CCCCCC4)nc23)cc1Cl`, the melting point was 236 to 238 °C.
The same measure for `CCCCCCCCCCCCCCCCCCOc1ccc(OCCCc2ccccc2)c(C(=O)O)c1`: 68 to 70 °C.
`CCC1C(C)=NN=C(c2ccccc2)c2ccc(OC)cc21` (centres undefined) displayed a melting point of 162 to 163 °C.
The same measure for `Cc1nnnn1CC(C)n1nnc2cc3c(=O)n(C4CC4)nnc3cc2c1=O` (centres undefined): 208 to 211 °C; for `CC(=C1SCSCS1)c1ccc(OCCCN2CCOCC2)cc1`: 95 to 98 °C; for `CC(C)(C)OC(=O)NN(Cc1ccccc1)C[C@H](O)[C@H](Cc1ccccc1)NC(=O)OCc1ccccc1`: 142 to 143 °C.
Take `COC(=O)c1sc(S(C)(=O)=O)cc1OCc1ccccc1`: the melting point was 125 to 126 °C.
`O=C(CBr)Nc1ccc(Cl)cc1C(=O)c1c(F)cccc1F` registered a melting point of 146 to 148 °C.
With `Cc1ccc(OC2=NS(=O)(=O)N=C(Oc3ccc(C)cc3)N2C)cc1` the figure was 282 to 286 °C.
`Cc1c2ccccc2c(C(=O)O)c2c(C(=O)O)cccc12` had a melting point of 275 to 280 °C.
With `COC(=O)c1csc(NC(=O)[C@H](CC2CCCC2)c2ccc(Cl)c(Cl)c2)n1`, the melting point lay in the range of 143 to 144 °C.
With `COc1cc(C=O)cc(Cl)c1OCCBr` the figure was 52 to 54 °C; with `O=S(=O)(Cc1ccccc1)On1nnc2ccc(Cl)cc21`, 126 to 128 °C; with `CSc1ccc(-c2n[nH]c(C(F)(F)F)c2-c2ccc(F)cc2)cc1`, 189 to 190 °C.
With `CC(=O)Nc1cc(C)c(N)c(C)c1[N+](=O)[O-]` the figure was 197 °C; with `CC(=O)N1CCCC2=C1CCc1cc(Cl)c(Cl)cc12`, 146 to 148 °C; with `CCOC(=O)c1ncc2[nH]c3ccc(C(=S)N4CCCCC4)cc3c2c1C`, 225 to 230 °C.
The same measure for `Nc1ncnc2c1c(-c1cccc3[nH]ncc13)nn2Cc1oc2ccccc2c(=O)c1-c1ccccc1`: 248 to 252 °C; for `CN(CCCc1ccccc1)[C@H]1CC[C@H](c2ccc(O)cc2)CC1`: 156 to 158 °C; for `CCSc1cc(CC=NOC)ccc1N(CC)c1nc(C)cc(C)n1`: 77 to 78 °C.
Consider `CC1(C)CC(=O)C2=C(C1)NC1=C(C(=O)CC(C)(C)C1)C2c1ccc2c(c1)OCCO2`, for which the melting point was above 300 °C.
The same measure for `COc1ccc(Cl)cc1C(=O)NCCc1ccc(-c2cc(C)cs2)c(S(N)(=O)=O)c1`: 165 to 168 °C; for `CCC(=O)c1ccnc(OC)c1`: 38 °C.
Regarding `O=C(O)CCCc1nc2c(F)c(F)cc(F)c2s1`, the melting point lay in the range of 113 to 114 °C.
In turn, `Sc1nnc(-c2ccc3[nH]ncc3c2)o1` returned a melting point of 283 to 284 °C.
The same measure for `COc1cc(OC)c(-c2cc3ccccc3s2)cc1/C=C/C(=O)c1ccc(C(=O)NC(C)=O)cc1`: 228 to 229 °C; for `Cn1c(C(=O)NC2CCCCC2)nc(-c2ccc(Cl)cc2Cl)c1-c1ccc(Cl)cc1`: 165 °C; for `COC(N)=CC(=O)C(C)(C)C`: 79 to 79.5 °C.
The same measure for `Cn1nc(-c2ccc(Cl)cc2)nc1-c1cccnc1`: 157 to 158 °C; for `O=C1O[C@H](C(O)O)CCN1Cc1ccccc1`: 120 °C.
`Cc1cc(-c2cccc(-c3ccc(OCC(=O)O)c4c3CCCC4)n2)c(C)[nH]1`: the melting point lay within 199 to 206 °C.
The same measure for `O=C(O)CC1(c2ccccc2)Oc2ccc(Cl)cc2O1` (centres undefined): 117 to 119 °C; for `OC1CSC(Oc2cccnc2)C(O)C1O` (centres undefined): 216 °C; for `COC(=O)Nc1ccc(Br)cc1I`: 129 to 130 °C.
With `NC(=O)CC(CC(N)=O)c1cccc(F)c1` the figure was 194 to 196 °C; with `CNC(=O)NCCSCc1[nH]cnc1C`, 158 to 159 °C.
In the case of `O=C(Nc1cccc(-c2ccnc3c(C(=O)c4cccs4)cnn23)c1)c1cc(C(F)(F)F)ccc1C(F)(F)F`, the melting point was in the range of 208 to 210 °C.
Take `CN1C(=O)Cc2cc(C(=O)CN3CCN(c4ccccc4)CC3)cnc21`: the melting point was 136 to 137 °C.
Molecule `COc1cc(-n2nnn(C)c2=O)c(Cl)cc1Cl` displayed a melting point of 80 to 81 °C.
Molecule `CCCCOc1ccc(S(=O)(=O)C2(C(=O)NO)CCN(Cc3cccc(OC)c3)CC2)cc1` gave a melting point of 137 °C.
In the case of `N#Cc1cccc2c1S(=O)(=O)c1ccccc1C2=O`, the melting point fell in the range of 252 to 254 °C.
`CCOC(=O)CN1CCN(CC(O)COc2cc3c(Nc4cccc(Br)c4)ncnc3cc2OC)CC1` (centres undefined): the melting point lay within 118 to 122 °C.
The same measure for `CCOc1ccc(-c2nc(-c3ccc(OC4OC(COC(C)=O)C(OC(C)=O)C(OC(C)=O)C4OC(C)=O)cc3)cs2)cc1OCC` (centres undefined): 180 to 181 °C; for `CC(C)(C)OC(=O)NNCc1cccc(C#N)c1`: 75 to 80 °C; for `COc1cccc(CNC(=O)c2ncc3ccccc3n2)c1`: 91 to 93 °C.
The same measure for `CN(C)CC(O)C(c1ccccc1)c1ccc(F)cc1` (centres undefined): 55 to 57 °C; for `Cn1cc(C(=O)Nc2ccccc2-c2ccc(Cl)cc2)c(C(F)(F)F)n1`: 144 to 146 °C; for `O=C(Cc1ccsc1)N[C@H]1C[C@H](C(=O)O)Nc2cc(Cl)cc(Cl)c21` (relative stereo): 198 to 200 °C.
The same measure for `N#CSCC(I)=C(I)CCl`: 76 to 78 °C; for `N=C(NC(=O)c1cccc2ccccc12)N1CC(c2ccccc2)C(c2ccc(Cl)cc2)=N1` (centres undefined): 206 to 207 °C; for `CCc1cc(NCc2ccc(-c3ccccc3C#N)cc2)n2ncc(Cl)c2n1`: 152 to 154 °C.
In turn, `COC(=O)c1cccc2nc(SCCN3CCN(CC(=O)Nc4c(C(C)C)cccc4C(C)C)CC3)oc12` showed a melting point of 159 to 161 °C.
With `O=C(O)Cc1cc(=O)n(Cc2ccc(Cl)cc2)c2ccc([N+](=O)[O-])cc12` the figure was 217 to 219 °C; with `Cc1nn(-c2cc3nc(S)sc3cc2F)c(=O)n1C(F)F`, 248 to 250 °C; with `O=[N+]([O-])c1ccc(S(=O)(=O)CCCl)cc1`, 130 °C.
The same measure for `O=C(NCCN1CCOCC1)Nc1nc2ccc(OCc3c(Cl)cccc3Cl)cc2s1`: 268 to 271 °C; for `Nc1c(-c2cc(Cl)ccc2O)c2cc(Cl)c(C(F)(F)F)cc2[nH]c1=O`: 245 to 246 °C; for `C=CC(O)c1ccccc1C#CC1C(O)C2CCN1CC2` (centres undefined): 148 to 150 °C.
The same measure for `COCOc1ccccc1-c1cc(-c2ccccc2C(=O)OC)c(C#N)c(N)n1`: 109 to 110 °C.
The molecule `CCCn1c(=O)c2c(nc(C=Cc3ccc(C(=O)O)cc3OC)n2C)n(CCC)c1=O` gave a melting point of 285 to 286 °C.
With `O=C(Nc1ccc(C(=O)N2CCCCc3sc(Cl)cc32)cc1)c1ccc(Cl)cc1Cl` the figure was 187 to 189 °C; with `N[C@@H](CO)[C@@H](O)[C@H](O)[C@H](O)CO`, 129 to 130 °C.
Regarding `CCCCc1nc2cccc(C(=O)OC)c2n1Cc1ccc(-c2ccccc2N2CC(=O)NC2=O)cc1`, the melting point is 149 to 151 °C.
The molecule `CC[C@H]1COC(=O)N1c1nc(-c2ccc(C#N)cc2)c(Cl)s1` had a melting point of 157 to 159 °C.
With `Cc1cc2c(cc1S(=O)(=O)N1CCOCC1)S(=O)(=O)NC(C1CCCCC1)N2` (centres undefined) the figure was 268 to 271 °C; with `CC(c1oc2ccccc2c(=O)c1-c1cccc(F)c1)n1nc(-c2ccc(S(C)(=O)=O)cc2)c2c(N)ncnc21` (centres undefined), 259 to 262 °C; with `COc1cc2sc(-c3ccccn3)nc(=O)c2cc1OC`, 236 to 238 °C.
Consider `CCCCc1nc2ccccn2c(=O)c1-c1ccc(Cl)c(C)c1`, for which the melting point lay in the range of 122 to 124 °C.
With `CC(C)Cc1nc2ccc(C(N)=O)cc2c(-c2ccccc2)c1CN` the figure was 128 to 129 °C.
With `CCOC(=O)CN1CCN(c2cc3c(cc2F)c(=O)c(C(=O)O)cn3C2CC2)CC1` the figure was 192 to 194 °C.
With `COc1ccc(-c2c(Cl)c(CNC(=O)Cn3cncn3)nc3sc4c(c23)CCN(Cc2ccccc2)C4)cc1OC` the figure was 101 to 102 °C.
Regarding `C=Cc1ccc(COc2ccc(COC(=O)C(=O)OCC)cc2)cc1`, the melting point was determined as 93 °C.
The molecule `CCCNC(C)=C1C(=O)OC(=O)C(C(=O)C=Cc2cccc(OC)c2OC)=C1O` yielded a melting point of 180 to 185 °C.
With `NC(=O)c1c(Cl)c(-c2ccccc2)n2c1CN(S(=O)(=O)c1ccc(Cl)c(Cl)c1)CC2` the figure was 192 to 193 °C.
The same measure for `CC(=O)NCCn1cccc1C1=CC(=O)c2ncccc2C1=O`: 164 to 165 °C; for `CCOC(=O)C=C(C)NC(=O)C(C)(C)CCl`: 76 to 77.5 °C; for `O=C(OCOC(=O)c1ccccc1)Oc1ccc([N+](=O)[O-])cc1`: 69 to 71 °C.
`CC(C)(C)c1cc(CCc2ccccc2NC(=O)N(Cc2ccccc2)C2CCCCCC2)cc(C(C)(C)C)c1O`: the melting point fell in the range of 183 to 184 °C.
Turning to `CCCCc1nc(C(C)(O)CC)c(C#N)[nH]1` (centres undefined), the melting point fell in the range of 139 to 142 °C.
Molecule `CC(O)=C(C#N)C(=O)Nc1cccc(F)c1` showed a melting point of 136 to 138 °C.
For the molecule `O=C(Cn1c(-c2ccncc2)ncc(NC(=O)OCc2ccccc2)c1=O)NC(Cc1ccccc1)C(=O)C(F)(F)F` (centres undefined), the melting point was 182 to 185 °C.
`Nc1ncc2cc(-c3c(Cl)cccc3Cl)c(=O)n(CCCc3ccccc3)c2n1` displayed a melting point of 161 to 163 °C.
Molecule `CCOCCOc1ccc(OCC(O)CNCCNC(=O)N2CCOCC2)cc1` (centres undefined) displayed a melting point of 75 to 77 °C.
With `CN(C)CCCOc1ccc(Nc2nccc(-c3cccnc3)n2)cc1` the figure was 85 to 87 °C.
The same measure for `COc1ccccc1OC(=O)C(=O)Oc1ccccc1OC`: 123 to 126 °C; for `COc1ccc2c(c1)C1(CCNC1)CC2O` (centres undefined): 135 to 138 °C; for `COC(=O)C(C)Oc1ncn(-c2cccc(C(F)(F)F)c2)n1` (centres undefined): 135 to 137 °C.
With `COc1ccc(Cl)c2c1CCC(CCl)=C2` the figure was 68 to 69.5 °C.
